In the supplement of paper PMC10307832:

How the values were obtained:
Assay in all cases: relative viability (nuclei count vs DMSO), 5 days (fraction); higher = more cells survive
AT9283 + Phenformin = compound: O=C(Nc1c[nH]nc1-c1nc2ccc(CN3CCOCC3)cc2[nH]1)NC1CC1 [AT9283] + N=C(N)NC(=N)NCCc1ccccc1 [Phenformin] (partner 250 µM)
In short: (§1)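 Nuclei were stained with Hoechst during a one-step fixation (final 0.05% Triton X-100, 1% formaldehyde, 1 ug/ml Hoechst) carried out 5 days after dosing, then counted on 4× images. The cells, lung cancer lines in 1536-well plates, had been dosed by pin tool the day after seeding with one drug alone or a fixed anchor-drug dose plus five library-drug doses (not always all listed) in √10 steps. Relative viability is the nuclei count in treated wells divided by that in vehicle wells, and each value is the median of duplicate plates.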

Erlotinib + Foretinib = compound: C#Cc1cccc(Nc2ncnc3cc(OCCOC)c(OCCOC)cc23)c1 [Erlotinib] + COc1cc2c(Oc3ccc(NC(=O)C4(C(=O)Nc5ccc(F)cc5)CC4)cc3F)ccnc2cc1OCCCN1CCOCC1 [Foretinib] (partner 0.25 µM)
In short: as §1

Erlotinib + Navitoclax = compound: C#Cc1cccc(Nc2ncnc3cc(OCCOC)c(OCCOC)cc23)c1 [Erlotinib] + CC1(C)CCC(c2ccc(Cl)cc2)=C(CN2CCN(c3ccc(C(=O)NS(=O)(=O)c4ccc(N[C@H](CCN5CCOCC5)CSc5ccccc5)c(S(=O)(=O)C(F)(F)F)c4)cc3)CC2)C1 [Navitoclax] (partner 0.5 µM)
In short: as §1

AT9283 + Crizotinib = compound: O=C(Nc1c[nH]nc1-c1nc2ccc(CN3CCOCC3)cc2[nH]1)NC1CC1 [AT9283] + C[C@@H](Oc1cc(-c2cnn(C3CCNCC3)c2)cnc1N)c1c(Cl)ccc(F)c1Cl [Crizotinib] (partner 1 µM)
In short: as §1

AT9283 + Luminespib = compound: O=C(Nc1c[nH]nc1-c1nc2ccc(CN3CCOCC3)cc2[nH]1)NC1CC1 [AT9283] + CCNC(=O)c1noc(-c2cc(C(C)C)c(O)cc2O)c1-c1ccc(CN2CCOCC2)cc1 [Luminespib] (partner 0.01 µM)
In short: as §1

Row | Cell Line | relative viability (AT9283 + Phenformin; first compound 0.003 µM) | relative viability (AT9283 + Phenformin; first compound 0.03 µM) | relative viability (AT9283 + Phenformin; first compound 0.09487 µM) | relative viability (AT9283 + Phenformin; first compound 0.3 µM) | relative viability (Erlotinib + Foretinib; first compound 0.02 µM) | relative viability (Erlotinib + Foretinib; first compound 0.2 µM) | relative viability (Erlotinib + Foretinib; first compound 0.6325 µM) | relative viability (Erlotinib + Foretinib; first compound 2 µM) | relative viability (Erlotinib + Navitoclax; first compound 0.02 µM) | relative viability (Erlotinib + Navitoclax; first compound 0.2 µM) | relative viability (Erlotinib + Navitoclax; first compound 0.6325 µM) | relative viability (Erlotinib + Navitoclax; first compound 2 µM) | relative viability (AT9283 + Crizotinib; first compound 0.003 µM) | relative viability (AT9283 + Crizotinib; first compound 0.03 µM) | relative viability (AT9283 + Crizotinib; first compound 0.09487 µM) | relative viability (AT9283 + Crizotinib; first compound 0.3 µM) | relative viability (AT9283 + Luminespib; first compound 0.003 µM) | relative viability (AT9283 + Luminespib; first compound 0.03 µM) | relative viability (AT9283 + Luminespib; first compound 0.09487 µM) | relative viability (AT9283 + Luminespib; first compound 0.3 µM)
1 | NCI-H2085 | 0.702 | 0.664 | 0.597 | 0.264 | 1.14 | 0.739 | 0.649 | 0.559 | 1.23 | 0.988 | 0.893 | 0.808 | 0.865 | 0.693 | 0.471 | 0.328 | 0.585 | 0.477 | 0.403 | 0.341
2 | NCI-H2087 | 0.458 | 0.251 | 0.111 | 0.118 | 1.12 | 1.18 | 1.12 | 0.964 | 1.14 | 0.913 | 0.899 | 0.904 | 0.795 | 0.554 | 0.401 | 0.326 | 0.163 | 0.17 | 0.15 | 0.139
3 | NCI-H2126 | 0.511 | 0.575 | 0.365 | 0.264 | 1.29 | 1.05 | 0.947 | 0.764 | 0.879 | 0.707 | 0.537 | 0.402 | 0.943 | 1.02 | 0.69 | 0.465 | 0.949 | 0.954 | 0.826 | 0.422
4 | NCI-H2170 | 0.433 | 0.375 | 0.177 | 0.14 | 1.04 | 1.05 | 0.935 | 0.656 | 0.513 | 0.377 | 0.451 | 0.216 | 1.22 | 0.73 | 0.236 | 0.198 | 0.821 | 0.574 | 0.509 | 0.176
5 | NCI-H2228 | 0.363 | 0.256 | 0.129 | 0.107 | 0.897 | 0.885 | 0.946 | 0.815 | 1.28 | 0.909 | 0.679 | 0.676 | 0.587 | 0.272 | 0.195 | 0.171 | 0.152 | 0.123 | 0.162 | 0.11
6 | NCI-H2347 | 0.413 | 0.464 | 0.347 | 0.363 | 0.877 | 0.841 | 1.08 | 0.61 | 1.07 | 0.833 | 0.837 | 0.796 | 0.717 | 0.78 | 0.446 | 0.363 | 0.364 | 0.543 | 0.43 | 0.231
7 | NCI-H2405 | 0.415 | 0.362 | 0.28 | 0.251 |  | 1.02 | 1.09 | 1.01 | 0.915 | 0.902 | 1.01 | 0.78 | 0.826 | 0.634 | 0.272 | 0.217 | 0.662 | 0.625 | 0.352 | 0.331
8 | NCI-H3122 | 0.359 | 0.334 | 0.203 | 0.138 | 0.982 | 0.989 | 0.963 | 0.884 | 1.05 | 1.04 | 1.01 | 1.03 | 0.291 | 0.259 | 0.216 | 0.214 | 0.122 | 0.0841 | 0.051 | 0.0606
9 | PC-3 [JPC-3] | 0.478 | 0.476 | 0.423 | 0.377 | 0.935 | 0.384 | 0.323 | 0.36 | 0.653 | 0.443 | 0.349 | 0.295 | 0.929 | 0.832 | 0.608 | 0.509 | 0.739 | 0.744 | 0.473 | 0.404
10 | PC-14 | 0.51 | 0.468 | 0.197 | 0.109 | 0.76 | 0.23 | 0.199 | 0.153 | 0.935 |  | 0.391 | 0.31 | 0.959 | 0.731 | 0.559 | 0.159 | 0.156 | 0.15 | 0.121 | 0.0746
11 | RERF-LC-KJ | 0.408 | 0.364 | 0.25 | 0.242 | 0.875 | 0.834 | 0.803 | 0.715 | 0.861 | 0.663 | 0.583 | 0.771 | 0.788 | 0.526 | 0.293 | 0.23 | 1.24 | 0.792 | 0.362 | 0.28
12 | SK-LU-1 | 0.582 | 0.431 | 0.179 | 0.179 | 0.961 | 0.975 | 0.997 | 0.699 | 1.07 | 1.36 | 0.752 | 0.733 | 0.922 | 0.519 | 0.295 | 0.305 | 0.203 | 0.203 | 0.209 | 0.157
13 | SK-MES-1 | 0.748 | 0.595 | 0.318 | 0.243 | 1.03 | 0.635 |  | 0.357 | 1.35 | 1.21 |  | 0.574 | 1.02 | 0.883 | 0.84 | 0.256 | 0.885 | 0.821 | 0.405 | 0.22
14 | SW 1573 | 0.426 | 0.163 | 0.156 | 0.121 | 0.886 | 0.911 | 0.895 | 0.9 | 0.922 | 1.05 |  | 0.896 | 0.698 | 0.376 | 0.219 | 0.157 | 0.199 | 0.148 | 0.142 | 0.169
15 | UMC-11 | 0.308 | 0.184 | 0.178 | 0.171 | 1.04 | 0.973 | 1.08 | 1.08 | 0.337 | 0.281 | 0.336 | 0.3 | 0.58 | 0.075 | 0.0835 | 0.132 | 1.05 | 0.161 | 0.16 | 0.165
